Key:
Jurkat cells = assay: High throughput factorial screening with Linear Mixed Effects statistical analysis of recovery; assay type: cell-based; conditions: statistical analysis of sugar and cooling rate
Method: (§1) In another evaluation, cells were combined with factorial combinations of the components listed in Table 5, using one component from each category. Plates including cells and solutions were frozen at cooling rates of 1′C/min, 3′C/min, 5′C/min, or 10′C/min.
(§2) Recovery was calculated by dividing the number of live cells post thaw—calculated using a control curve correlating calcein-acetoxymethyl (AM) fluorescence to cell count—by the number of live cells seeded pre-freeze (AO/PI counts taken prior to freezing). Recovery was normalized by dividing by the DMSO recovery on each plate, then multiplying by a standard DMSO recovery for each cooling rate. This normalized recovery was used to compare samples between different plates and different cooling rates.
(§3) Statistical analysis of the data was performed using a Linear Effects Model. The model associated with best fit was determined using Bayesian Information Criteria. […] The ten best combinations for Jurkats are summarized in Table 6 below, while the eight best combinations for MSCs are summarized in Table 7.
High throughput factorial screening experiments were performed on a Biomek Beckman FX 96 liquid handling robot. Briefly, 12.5 μl of an array of additives were transferred to nine 96-well plates containing 12.5 μl of different sugar alcohols. Cells (25 μl) diluted in either a sugar (in a solution of NORMOSOL-R; Hospira, Inc., Lake Forest, L) or a NORMOSOL-R blank solution were transferred to these nine plates to give a final volume of 50 μl in each well. Cells suspended in […] in media were also included as a row of each plate to serve as normalization wells for plate-to-plate comparison.
When all plate volume transfers were complete, silicone plate covers were used to seal each plate, and plates were transferred to a controlled rate freezer (Kryo 10 Series III, Planer PLC, Middlesex, United Kingdom) and frozen at cooling rates ranging from 1° C./min to 10° C./min. The concentrations of components present in solution are listed in Table 11, and were selected based on values described in literature or solubility limits. Component concentrations were 0 if not listed in a solution.
Plate samples were also assessed for viability using fluorescence. Briefly, a solution of calcein-AM/propidium iodide was prepared and a volume of 50 μl was added to each sample well of experimental 96-well plates, producing a 1:1 dilution. Plates were protected from light and placed in an incubator for 30 minutes to allow for calcein-AM digestion. A fluorescent plate reader (Synergy HT, BioTek Instruments, Inc., Winooski, Vt.) was used to determine the fluorescence in each well, which was correlated to live and dead cell counts using a control curve.
Viability was calculated for all samples by dividing the number of live cells by the number of total cells. Recovery was calculated directly by dividing the number of live cells post thaw by the number of live cells pre-freeze. Recovery for 96-well plate samples was further normalized; each experimental sample recovery was divided by the DMSO recovery on the same plate, and then multiplied by the standard DMSO recovery for the cooling rate of each experiment.
To assess the importance of the four explanatory variables of interest (Sugar, Rate, Additive and Alcohol), without neglecting the variation between each batch and between each plate within the batches, we sought to find the best Linear Mixed Effects (LME) model. […]

MSCs = assay: as above; assay type: cell-based, human; conditions: statistical analysis of sugar and cooling rate
Method: as §1, §2, §3
To assess the importance of the four explanatory variables of interest (Sugar, Rate, Additive and Alcohol), without neglecting the variation between each batch and between each plate within the batches, we sought to find the best Linear Mixed Effects (LME) model. With yi the i'th outcome of the response, Xi the corresponding values of the covariates, the LME model is defined as
To select the most fitting model, we performed backward elimination based on the Bayesian Information Criterion (BIC) starting with a model that includes all variables and second order interactions. Furthermore, we included two random variables, one to catch the effect of the batch, and one to catch the effect of each plate within the batch—i.e., the full model is: […]

## OC[C@H]1O[C@@](CO)(O[C@H]2O[C@H](CO)[C@@H](O)[C@H](O)[C@H]2O)[C@@H](O)[C@@H]1O [Sucrose]
Jurkat cells
  cooling rate at which cells performed better with the sugar: 10 °C and 1° C./min
MSCs
  cooling rate at which cells performed better with the sugar: 3 °C and 5° C./min

From US20220030850A1, “CRYOPRESERVATIVE COMPOSITIONS AND METHODS” (REGENTS OF THE UNIVERSITY OF MINNESOTA, priority 2015, published 2022)
